Data on 2 compounds can be found in patent US7427601B2, “Method for treating tremor” (Schwarz Pharma AG, priority 2004, dated 2008).

In the assay the test system is harmaline-induced tremors. Kind of assay: Harmaline-induced tremors in rats. It is filed as in vivo, Male Sprague-Dawley rats. Conditions: for Intensity of tremors after harmaline administration (score), Mean ± S.E.M.: scale 0 to 4. As to the method:
Male Sprague-Dawley rats (Charles River Laboratories, France) were used. During the acclimatization period, animals were housed 2 per cage, in Makrolon type III cages, in the animal room (temperature: 20±2° C., humidity: minimum 45%, air changes: >12 per hour, light/dark cycle of 12 h/12 h [on at 7:00 A.M.]). Animals were allowed a minimum of 5 days period before experiment for acclimatization.
Harmaline HCl (Sigma) was diluted in saline and injected at 20 mg/kg, i.p. The reference compound, propanolol was injected i.p. at 20 mg/kg, 30 min before harmaline administration. SPM 927 was given i.p. at 3, 10 and 30 mg/kg, 30 min before harmaline administration.
The following parameters were assessed by an observer blind to the treatment of the animals. • Intensity: from 0 to 4 (0: no tremor, 1: mild tremor, 2: moderate intermittent tremor, 3: moderate persistent tremor, 4: pronounced severe tremor). Intensity will be scored every 30 min and for a total period of 120 min after harmaline administration. • Latency of onset • Total duration of tremor (max observation time: 120 min) • % rat displaying tremor

Consider `CC(C)NCC(O)COc1cccc2ccccc12` (stereo not shown) [Propranolol, reference compound], for which the “Intensity of tremors after harmaline administration (score), Mean ± S.E.M.” value (“Intensity of tremors … Mean ± S.E.M.” below) is, setting by setting: (20 mg/kg i.p. 30 min before harmaline (20 mg/kg i.p.), +30 min) 1.6 ± 0.2 score; (20 mg/kg i.p. 30 min before harmaline (20 mg/kg i.p.), +60 min) 2.3 ± 0.3 score; (20 mg/kg i.p. 30 min before harmaline (20 mg/kg i.p.), +90 min) 1.6 ± 0.3 score; (20 mg/kg i.p. 30 min before harmaline (20 mg/kg i.p.), +120 min) 1.4 ± 0.3 score. Also, the “intensity of tremors (in words)” value (20 mg/kg, each time-point of observation) is reported as “reduced the intensity of tremors in a statistically significant manner”.
Consider `COC[C@@H](NC(C)=O)C(=O)NCc1ccccc1` [SPM 927, (R)-2-acetamide-N-benzyl-3-methoxypropionamide], for which the “Intensity of tremors … Mean ± S.E.M.” value runs as follows: (3 mg/kg i.p. 30 min before harmaline (20 mg/kg i.p.), +30 min) 2.0 ± 0.4 score; (3 mg/kg i.p. 30 min before harmaline (20 mg/kg i.p.), +60 min) 2.0 ± 0.3 score; (3 mg/kg i.p. 30 min before harmaline (20 mg/kg i.p.), +90 min) 2.1 ± 0.4 score; (3 mg/kg i.p. 30 min before harmaline (20 mg/kg i.p.), +120 min) 1.8 ± 0.4 score; (10 mg/kg i.p. 30 min before harmaline (20 mg/kg i.p.), +30 min) 2.0 ± 0.2 score; (10 mg/kg i.p. 30 min before harmaline (20 mg/kg i.p.), +60 min) 1.1 ± 0.3 score. For the same compound, the “Intensity of tremors … Mean ± S.E.M.” value (10 mg/kg i.p. 30 min before harmaline (20 mg/kg i.p.), +90 min) was 2.2 ± 0.4 score; the “Intensity of tremors … Mean ± S.E.M.” value (10 mg/kg i.p. 30 min before harmaline (20 mg/kg i.p.), +120 min) is 1.3 ± 0.3 score; the “Intensity of tremors … Mean ± S.E.M.” value (30 mg/kg i.p. 30 min before harmaline (20 mg/kg i.p.), +30 min) is 0.9 ± 0.4 score; the “Intensity of tremors … Mean ± S.E.M.” value (30 mg/kg i.p. 30 min before harmaline (20 mg/kg i.p.), +60 min) is listed as 1.1 ± 0.3 score; the “Intensity of tremors … Mean ± S.E.M.” value (30 mg/kg i.p. 30 min before harmaline (20 mg/kg i.p.), +90 min) came to 1.4 ± 0.3 score; the “Intensity of tremors … Mean ± S.E.M.” value (30 mg/kg i.p. 30 min before harmaline (20 mg/kg i.p.), +120 min) turned out to be 1.2 ± 0.2 score. Further, the “intensity of harmaline-induced tremors (in words)” value (given at 3, 10 and 30 mg/kg) is listed as “reduced the intensity of harmaline-induced tremors in a dose dependent manner”. Besides, under “highest dose tested (30 mg/kg) versus propranolol 20 mg/kg”, the “maximal efficacy on tremor intensity compared with propranolol (in words)” value was “higher than that of the positive reference compound propranolol”. Further, the “intensity of harmaline-induced tremor (in words)” value (rats, summary statement) was “reduced”. For the same compound, the “latency of tremor onset following harmaline injection (in words)” value (rats, summary statement) is reported as “markedly increased”. Besides, for the setting “rats, summary statement”, the “total duration of harmaline-induced tremor (in words)” value is “reduced”.
